One series has as its target CYP2D6 (Homo sapiens, UniProt P10635). Nature of the series: Inhibition of CYP2D6 at 1 uM. Format: ADME.
Series [1] deals with Prostaglandin G/H synthase 1 (Homo sapiens) (UniProt P23219). Description: Inhibition of COX1 at 10 uM.
Series [2] deals with T1, Polyunsaturated fatty acid lipoxygenase ALOX15 (Homo sapiens) (UniProt P16050).
T1 sequence (whole entry): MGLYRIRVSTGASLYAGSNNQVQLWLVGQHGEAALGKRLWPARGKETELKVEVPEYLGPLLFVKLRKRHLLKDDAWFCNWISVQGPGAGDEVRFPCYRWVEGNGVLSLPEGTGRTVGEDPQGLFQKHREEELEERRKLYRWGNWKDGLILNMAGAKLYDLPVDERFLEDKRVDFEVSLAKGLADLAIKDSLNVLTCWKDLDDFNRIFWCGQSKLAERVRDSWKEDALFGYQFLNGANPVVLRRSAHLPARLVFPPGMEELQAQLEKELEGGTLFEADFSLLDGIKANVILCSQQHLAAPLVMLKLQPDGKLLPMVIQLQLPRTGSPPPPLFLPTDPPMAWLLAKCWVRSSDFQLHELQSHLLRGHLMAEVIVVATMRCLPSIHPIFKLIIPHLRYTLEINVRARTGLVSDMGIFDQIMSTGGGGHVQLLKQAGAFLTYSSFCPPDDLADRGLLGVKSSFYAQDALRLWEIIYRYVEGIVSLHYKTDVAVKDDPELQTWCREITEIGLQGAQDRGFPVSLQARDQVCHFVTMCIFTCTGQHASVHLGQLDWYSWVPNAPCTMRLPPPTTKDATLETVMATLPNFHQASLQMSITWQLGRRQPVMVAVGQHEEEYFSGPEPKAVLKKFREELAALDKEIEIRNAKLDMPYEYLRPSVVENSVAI
Description: Inhibition of 15-lipoxygenase at 10 uM.

Series [3] has as its target T2, Prostaglandin D2 receptor 2 (Homo sapiens) (UniProt Q9Y5Y4).
T2 sequence (whole entry): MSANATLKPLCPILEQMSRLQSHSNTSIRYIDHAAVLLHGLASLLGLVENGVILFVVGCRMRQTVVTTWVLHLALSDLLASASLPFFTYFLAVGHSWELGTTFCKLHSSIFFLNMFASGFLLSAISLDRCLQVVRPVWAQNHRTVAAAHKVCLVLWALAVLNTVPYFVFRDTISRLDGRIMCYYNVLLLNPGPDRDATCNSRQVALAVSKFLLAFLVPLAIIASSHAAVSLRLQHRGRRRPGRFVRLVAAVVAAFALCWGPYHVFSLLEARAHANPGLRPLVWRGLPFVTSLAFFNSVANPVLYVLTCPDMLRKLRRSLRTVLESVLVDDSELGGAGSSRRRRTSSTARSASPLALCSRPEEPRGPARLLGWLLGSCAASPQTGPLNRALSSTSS
Description: Antagonist activity at human CRTH2 receptor expressed in […] cells assessed as inhibition of beta arrestin translocation by bioluminescence resonance energy transfer assay relative to control. The class given is functional, cell-based.

Series [4] is described as follows: Permeability apical to basolateral side in human Caco-2 cells. The class given is ADME, cell-based. Conditions: read-out: permeability.
Series [5] deals with T3, Prostaglandin D2 receptor 2 (Homo sapiens, UniProt Q9Y5Y4).
T3 sequence (Q9Y5Y4 whole entry): T2 sequence (whole entry)
Description: Antagonist activity at human CRTH2 receptor expressed in […] cells assessed as inhibition of beta arrestin translocation by bioluminescence resonance energy transfer assay. Format: functional, cell-based.

The nature of series [6]: Metabolic stability in rat liver S9 fraction assessed as compound remaining. Format: ADME, subcellular.
The target of series [7] is T3, Prostaglandin D2 receptor 2. Nature of the series: Displacement of[3H]PGD2 from human CRTH2 receptor expressed in […] cells. The class given is cell-based.
Series [8] is described as follows: Half life in rat. Conditions: in vivo. Format: ADME, organism-based.
In series [9] the target is T4, Prostaglandin D2 receptor (Homo sapiens, UniProt Q13258).
T4 sequence (Q13258 whole entry): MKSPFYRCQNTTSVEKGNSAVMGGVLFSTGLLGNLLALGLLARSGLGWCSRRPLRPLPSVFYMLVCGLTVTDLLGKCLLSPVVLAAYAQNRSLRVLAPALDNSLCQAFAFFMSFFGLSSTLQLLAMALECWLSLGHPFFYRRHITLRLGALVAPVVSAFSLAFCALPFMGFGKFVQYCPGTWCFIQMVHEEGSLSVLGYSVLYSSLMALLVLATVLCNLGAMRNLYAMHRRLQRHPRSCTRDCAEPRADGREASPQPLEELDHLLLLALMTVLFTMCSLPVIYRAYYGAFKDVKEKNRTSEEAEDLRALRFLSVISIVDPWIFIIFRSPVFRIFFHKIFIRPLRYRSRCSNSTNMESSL
Description: Inhibition of DP1 receptor.

For series [10], the target named is T5, Prostaglandin G/H synthase 2 (Homo sapiens) (UniProt P35354).
T5 sequence (whole entry): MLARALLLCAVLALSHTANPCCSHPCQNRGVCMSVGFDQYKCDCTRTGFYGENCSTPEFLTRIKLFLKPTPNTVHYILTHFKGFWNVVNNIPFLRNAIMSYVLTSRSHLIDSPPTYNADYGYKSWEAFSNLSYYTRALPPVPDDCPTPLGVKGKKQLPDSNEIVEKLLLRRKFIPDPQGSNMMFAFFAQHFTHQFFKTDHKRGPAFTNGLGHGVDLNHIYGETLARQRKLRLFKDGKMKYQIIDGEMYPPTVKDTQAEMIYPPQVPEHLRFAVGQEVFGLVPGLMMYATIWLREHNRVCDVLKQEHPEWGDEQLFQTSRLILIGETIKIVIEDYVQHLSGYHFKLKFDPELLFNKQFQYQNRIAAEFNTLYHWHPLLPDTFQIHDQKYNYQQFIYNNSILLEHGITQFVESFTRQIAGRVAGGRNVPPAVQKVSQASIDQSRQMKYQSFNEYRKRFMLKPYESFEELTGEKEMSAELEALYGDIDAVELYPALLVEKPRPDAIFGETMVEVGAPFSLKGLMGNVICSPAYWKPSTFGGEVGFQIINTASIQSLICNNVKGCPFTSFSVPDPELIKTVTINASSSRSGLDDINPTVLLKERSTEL
Description: Inhibition of COX2 at 10 uM.

Series [11] can be described thus: Aqueous solubility at pH 1. The class given is physicochemical.
The target in series [12] is T6, Polyunsaturated fatty acid lipoxygenase ALOX12 (Homo sapiens) (UniProt P18054).
T6 sequence (whole entry): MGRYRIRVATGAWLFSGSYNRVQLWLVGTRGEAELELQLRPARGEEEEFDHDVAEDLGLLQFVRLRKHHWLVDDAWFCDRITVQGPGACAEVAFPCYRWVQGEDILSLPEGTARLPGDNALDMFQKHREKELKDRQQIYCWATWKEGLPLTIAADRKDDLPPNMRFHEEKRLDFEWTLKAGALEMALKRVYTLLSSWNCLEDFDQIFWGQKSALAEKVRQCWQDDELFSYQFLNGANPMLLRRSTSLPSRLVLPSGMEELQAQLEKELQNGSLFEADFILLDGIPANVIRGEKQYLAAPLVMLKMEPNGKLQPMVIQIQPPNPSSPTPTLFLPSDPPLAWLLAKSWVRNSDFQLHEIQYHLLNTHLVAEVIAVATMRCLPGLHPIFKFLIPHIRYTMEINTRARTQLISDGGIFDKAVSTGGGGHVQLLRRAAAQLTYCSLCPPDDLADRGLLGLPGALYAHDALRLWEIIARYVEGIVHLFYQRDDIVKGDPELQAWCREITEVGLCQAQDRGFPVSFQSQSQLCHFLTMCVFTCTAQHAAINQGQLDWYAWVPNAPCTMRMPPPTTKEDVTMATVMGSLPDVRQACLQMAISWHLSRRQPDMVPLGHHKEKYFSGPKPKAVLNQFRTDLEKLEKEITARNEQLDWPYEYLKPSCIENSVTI
Nature of the series: Inhibition of 12-lipoxygenase at 10 uM.

A further series deals with CYP3A4 (Homo sapiens, UniProt P08684). Nature of the series: Inhibition of CYP3A4 at 1 uM. Format: ADME.
Sequence of CYP3A4 (P08684 whole entry): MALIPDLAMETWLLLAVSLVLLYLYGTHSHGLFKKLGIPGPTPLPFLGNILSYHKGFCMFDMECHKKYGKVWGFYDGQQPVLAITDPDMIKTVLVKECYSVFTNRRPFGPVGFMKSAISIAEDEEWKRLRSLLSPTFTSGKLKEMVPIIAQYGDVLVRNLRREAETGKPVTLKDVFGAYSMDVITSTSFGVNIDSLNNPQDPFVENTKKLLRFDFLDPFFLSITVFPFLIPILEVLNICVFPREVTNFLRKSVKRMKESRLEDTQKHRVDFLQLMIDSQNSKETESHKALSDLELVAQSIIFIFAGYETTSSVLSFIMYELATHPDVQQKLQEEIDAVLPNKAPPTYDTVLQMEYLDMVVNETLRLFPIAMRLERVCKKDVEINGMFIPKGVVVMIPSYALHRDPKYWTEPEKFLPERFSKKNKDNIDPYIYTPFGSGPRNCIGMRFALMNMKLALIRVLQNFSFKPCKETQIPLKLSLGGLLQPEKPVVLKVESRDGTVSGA
A short description of series [13]: Bioavailability in rat. Format: ADME, organism-based. Conditions: in vivo.
A short description of series [14]: Clearance in rat. Format: ADME, organism-based. Conditions: in vivo.
Series [15] can be described thus: Aqueous solubility at pH 7.4. The class given is physicochemical.
The nature of series [16]: Metabolic stability in human liver S9 fraction assessed as compound remaining. Format: ADME, subcellular.
The target of series [17] is Phospholipase A2 (Homo sapiens) (UniProt P04054). Description: Inhibition of PLA2 at 10 uM.
Sequence of Phospholipase A2 (Homo sapiens) (P04054 23-148 limits assumed): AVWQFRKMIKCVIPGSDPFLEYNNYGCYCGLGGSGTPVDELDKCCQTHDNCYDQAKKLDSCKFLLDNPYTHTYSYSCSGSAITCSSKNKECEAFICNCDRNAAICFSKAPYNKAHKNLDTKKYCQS

SMILES strings stand for the structures. ≈ marks a conversion by molar mass, not a printed value.

Sequence of CYP2D6 (P10635 whole entry): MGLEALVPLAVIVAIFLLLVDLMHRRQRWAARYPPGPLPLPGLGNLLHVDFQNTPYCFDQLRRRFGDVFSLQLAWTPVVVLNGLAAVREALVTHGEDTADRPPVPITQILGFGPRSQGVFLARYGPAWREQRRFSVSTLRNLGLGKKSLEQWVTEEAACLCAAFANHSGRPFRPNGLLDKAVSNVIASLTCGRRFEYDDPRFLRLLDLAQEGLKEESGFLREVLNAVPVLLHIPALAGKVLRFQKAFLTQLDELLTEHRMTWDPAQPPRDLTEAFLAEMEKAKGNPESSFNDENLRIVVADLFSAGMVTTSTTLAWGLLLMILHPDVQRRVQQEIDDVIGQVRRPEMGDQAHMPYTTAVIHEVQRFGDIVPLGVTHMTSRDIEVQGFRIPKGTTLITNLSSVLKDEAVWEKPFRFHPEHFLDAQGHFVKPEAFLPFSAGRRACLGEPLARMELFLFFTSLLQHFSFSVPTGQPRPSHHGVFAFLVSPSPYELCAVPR
Sequence of Prostaglandin G/H synthase 1 (Homo sapiens) (P23219 whole entry): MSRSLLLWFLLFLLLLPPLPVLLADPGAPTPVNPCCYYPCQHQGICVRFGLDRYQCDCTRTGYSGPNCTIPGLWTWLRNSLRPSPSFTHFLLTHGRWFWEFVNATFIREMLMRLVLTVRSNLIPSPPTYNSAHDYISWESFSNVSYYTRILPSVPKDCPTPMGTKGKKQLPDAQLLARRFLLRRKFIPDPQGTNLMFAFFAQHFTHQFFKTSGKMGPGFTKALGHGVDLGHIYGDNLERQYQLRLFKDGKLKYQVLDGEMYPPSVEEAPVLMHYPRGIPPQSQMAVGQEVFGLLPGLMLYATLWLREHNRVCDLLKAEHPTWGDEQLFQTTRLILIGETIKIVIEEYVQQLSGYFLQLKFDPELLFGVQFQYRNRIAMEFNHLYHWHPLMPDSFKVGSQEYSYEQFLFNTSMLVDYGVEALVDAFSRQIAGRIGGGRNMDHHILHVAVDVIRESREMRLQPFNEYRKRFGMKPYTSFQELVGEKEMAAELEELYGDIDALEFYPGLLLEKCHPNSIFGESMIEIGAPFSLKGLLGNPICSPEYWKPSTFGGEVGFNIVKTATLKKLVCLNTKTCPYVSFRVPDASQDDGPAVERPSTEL

Turning to `O=C(O)Cc1sc(C(c2ccccc2)c2ccccc2)nc1-c1ccc(Cl)cc1`, the inhibition at 1 µM against CYP2D6 was found to be 97.8%; on CYP3A4 it was 69%. For the same compound, the inhibition in series [1], in [2], in series [10], in [12] and in series [17] was 20% throughout. In addition, the Efficacy in series [3] turned out to be 50%. Further, the Papp A→B in series [4] came to 2.6 ×10⁻⁶ cm/s. Besides, the IC50 in series [5] came to 60 nM; in series [7] it was 14 nM; in series [9], 100000 nM. In addition, the Stability in series [6] turned out to be 2.1%; in series [16], 98.5%. In series [8], this compound had a half-life of 24 h. Also, the solubility is 197 µM (≈ 82.7 µg/mL) in series [11] and 154 µM (≈ 64.7 µg/mL) in series [15]. This compound also displayed a bioavailability in series [13] of 62%. The compound further returned a clearance in [14] of 27 mL/min/kg.

A word on the inhibition: it is the share of the control response that was lost under treatment. One may read the IC50 as the midpoint of a concentration-inhibition curve. For orientation: half-life means how long it takes for the measured level to halve. For orientation: solubility means the concentration that dissolves in the medium under given conditions. A word on the bioavailability: it is the share of a dose that reaches the circulation, judged against a reference dose that is usually intravenous. A higher bioavailability goes with good availability. As usually defined, the clearance is the rate of elimination divided by the concentration. Read a low clearance as inefficient removal.

The values are drawn from ChEMBL document CHEMBL1158509, “Novel selective thiazoleacetic acids as CRTH2 antagonists developed from in silico derived hits. Part 2” (Bioorg Med Chem Lett, 2010).
